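How tested: cells in 96-well plates exposed to compound for 48 hours at five concentrations. TGI: concentration producing complete growth inhibition.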
How the values were obtained:
Test in all cases: growth of human tumour cells (NCI), 48 h
SF-295 CNS = tested on: SF-295 CNS
SR leukemia = tested on: SR leukemia
SK-MEL-5 melanoma = tested on: SK-MEL-5 melanoma
RXF 393 renal = tested on: RXF 393 renal
OVCAR-3 ovarian = tested on: OVCAR-3 ovarian
DU-145 prostate = tested on: DU-145 prostate
NCI-H23 lung = tested on: NCI-H23 lung
MDA-MB-435 = tested on: MDA-MB-435
SK-OV-3 ovarian = tested on: SK-OV-3 ovarian
T-47D breast = tested on: T-47D breast
BT-549 breast = tested on: BT-549 breast
LOX IMVI melanoma = tested on: LOX IMVI melanoma
MOLT-4 leukemia = tested on: MOLT-4 leukemia
M14 melanoma = tested on: M14 melanoma
NCI-H226 lung = tested on: NCI-H226 lung
COLO 205 colon = tested on: COLO 205 colon
U251 CNS = tested on: U251 CNS
OVCAR-4 ovarian = tested on: OVCAR-4 ovarian
UACC-257 melanoma = tested on: UACC-257 melanoma
HCT-15 colon = tested on: HCT-15 colon
HL-60(TB) leukemia = tested on: HL-60(TB) leukemia
SF-268 CNS = tested on: SF-268 CNS
NCI/ADR-RES ovarian = tested on: NCI/ADR-RES ovarian
786-0 renal = tested on: 786-0 renal
HCT-116 colon = tested on: HCT-116 colon
RPMI-8226 leukemia = tested on: RPMI-8226 leukemia
ACHN renal = tested on: ACHN renal
SNB-75 CNS = tested on: SNB-75 CNS
SK-MEL-28 melanoma = tested on: SK-MEL-28 melanoma
CAKI-1 renal = tested on: CAKI-1 renal
A498 renal = tested on: A498 renal
K-562 leukemia = tested on: K-562 leukemia
NCI-H522 lung = tested on: NCI-H522 lung
UO-31 renal = tested on: UO-31 renal
OVCAR-5 ovarian = tested on: OVCAR-5 ovarian
HOP-62 NSCLC = tested on: HOP-62 NSCLC
PC-3 prostate = tested on: PC-3 prostate
TK-10 renal = tested on: TK-10 renal
SW-620 colon = tested on: SW-620 colon
MDA-MB-231 breast = tested on: MDA-MB-231 breast
KM12 colon = tested on: KM12 colon
A549 NSCLC = tested on: A549 NSCLC
SK-MEL-2 melanoma = tested on: SK-MEL-2 melanoma
HOP-92 NSCLC = tested on: HOP-92 NSCLC
SN12C renal = tested on: SN12C renal
EKVX NSCLC = tested on: EKVX NSCLC
HS 578T breast = tested on: HS 578T breast
MALME-3M melanoma = tested on: MALME-3M melanoma
OVCAR-8 ovarian = tested on: OVCAR-8 ovarian
HT29 colon = tested on: HT29 colon
NCI-H460 lung = tested on: NCI-H460 lung
MDA-N = tested on: MDA-N
UACC-62 melanoma = tested on: UACC-62 melanoma
CCRF-CEM leukemia = tested on: CCRF-CEM leukemia
IGROV1 ovarian = tested on: IGROV1 ovarian
SF-539 CNS = tested on: SF-539 CNS
MCF7 breast = tested on: MCF7 breast
HCC-2998 colon = tested on: HCC-2998 colon
SNB-19 CNS = tested on: SNB-19 CNS

## Cc1ncc([N+](=O)[O-])n1CCNS(=O)(=O)CCCn1ccnc1[N+](=O)[O-]
SF-295 CNS
  TGI: > 100 µM
SR leukemia
  TGI: > 100 µM
SK-MEL-5 melanoma
  TGI: > 100 µM
RXF 393 renal
  TGI: > 100 µM
OVCAR-3 ovarian
  TGI: > 100 µM
DU-145 prostate
  TGI: > 100 µM
NCI-H23 lung
  TGI: > 100 µM
MDA-MB-435
  TGI: > 100 µM
SK-OV-3 ovarian
  TGI: > 100 µM
T-47D breast
  TGI: > 100 µM
BT-549 breast
  TGI: > 100 µM
LOX IMVI melanoma
  TGI: > 100 µM
MOLT-4 leukemia
  TGI: > 100 µM
M14 melanoma
  TGI: > 100 µM
NCI-H226 lung
  TGI: > 100 µM
COLO 205 colon
  TGI: > 100 µM
U251 CNS
  TGI: > 100 µM
OVCAR-4 ovarian
  TGI: > 100 µM
UACC-257 melanoma
  TGI: > 100 µM
HCT-15 colon
  TGI: > 100 µM
HL-60(TB) leukemia
  TGI: > 100 µM
SF-268 CNS
  TGI: > 100 µM
NCI/ADR-RES ovarian
  TGI: > 100 µM
786-0 renal
  TGI: > 100 µM
HCT-116 colon
  TGI: > 100 µM
RPMI-8226 leukemia
  TGI: > 100 µM
ACHN renal
  TGI: > 100 µM
SNB-75 CNS
  TGI: > 100 µM
SK-MEL-28 melanoma
  TGI: > 100 µM
CAKI-1 renal
  TGI: > 100 µM
A498 renal
  TGI: > 100 µM
K-562 leukemia
  TGI: > 100 µM
NCI-H522 lung
  TGI: > 100 µM
UO-31 renal
  TGI: > 100 µM
OVCAR-5 ovarian
  TGI: > 100 µM
HOP-62 NSCLC
  TGI: > 100 µM
PC-3 prostate
  TGI: > 100 µM
TK-10 renal
  TGI: > 100 µM
SW-620 colon
  TGI: > 100 µM
MDA-MB-231 breast
  TGI: > 100 µM
KM12 colon
  TGI: > 100 µM
A549 NSCLC
  TGI: > 100 µM
SK-MEL-2 melanoma
  TGI: > 100 µM
HOP-92 NSCLC
  TGI: > 100 µM
SN12C renal
  TGI: > 100 µM
EKVX NSCLC
  TGI: > 100 µM
HS 578T breast
  TGI: > 100 µM
MALME-3M melanoma
  TGI: > 100 µM
OVCAR-8 ovarian
  TGI: > 100 µM
HT29 colon
  TGI: > 100 µM
NCI-H460 lung
  TGI: > 100 µM
MDA-N
  TGI: > 100 µM
UACC-62 melanoma
  TGI: > 100 µM
CCRF-CEM leukemia
  TGI: > 100 µM
IGROV1 ovarian
  TGI: > 100 µM
SF-539 CNS
  TGI: > 100 µM
MCF7 breast
  TGI: > 100 µM

## O=c1[nH]nc(-c2ccc([N+](=O)[O-])cc2)n1/N=C/c1ccc([N+](=O)[O-])cc1
SF-295 CNS
  TGI: > 100 µM
SR leukemia
  TGI: > 100 µM
SK-MEL-5 melanoma
  TGI: > 100 µM
RXF 393 renal
  TGI: > 100 µM
OVCAR-3 ovarian
  TGI: > 100 µM
DU-145 prostate
  TGI: > 100 µM
NCI-H23 lung
  TGI: > 100 µM
MDA-MB-435
  TGI: > 100 µM
SK-OV-3 ovarian
  TGI: > 100 µM
HCC-2998 colon
  TGI: > 100 µM
T-47D breast
  TGI: > 100 µM
BT-549 breast
  TGI: > 100 µM
LOX IMVI melanoma
  TGI: 34.4 µM
MOLT-4 leukemia
  TGI: > 100 µM
M14 melanoma
  TGI: > 100 µM
NCI-H226 lung
  TGI: > 100 µM
COLO 205 colon
  TGI: > 100 µM
U251 CNS
  TGI: > 100 µM
OVCAR-4 ovarian
  TGI: > 100 µM
UACC-257 melanoma
  TGI: > 100 µM
HCT-15 colon
  TGI: > 100 µM
HL-60(TB) leukemia
  TGI: > 100 µM
SF-268 CNS
  TGI: > 100 µM
NCI/ADR-RES ovarian
  TGI: > 100 µM
786-0 renal
  TGI: > 100 µM
HCT-116 colon
  TGI: > 100 µM
RPMI-8226 leukemia
  TGI: > 100 µM
ACHN renal
  TGI: > 100 µM
SNB-75 CNS
  TGI: > 100 µM
SK-MEL-28 melanoma
  TGI: > 100 µM
CAKI-1 renal
  TGI: > 100 µM
A498 renal
  TGI: > 100 µM
K-562 leukemia
  TGI: > 100 µM
NCI-H522 lung
  TGI: > 100 µM
UO-31 renal
  TGI: > 100 µM
SNB-19 CNS
  TGI: > 100 µM
OVCAR-5 ovarian
  TGI: > 100 µM
HOP-62 NSCLC
  TGI: > 100 µM
PC-3 prostate
  TGI: > 100 µM
TK-10 renal
  TGI: > 100 µM
SW-620 colon
  TGI: > 100 µM
MDA-MB-231 breast
  TGI: > 100 µM
KM12 colon
  TGI: > 100 µM
A549 NSCLC
  TGI: > 100 µM
SK-MEL-2 melanoma
  TGI: > 100 µM
HOP-92 NSCLC
  TGI: > 100 µM
SN12C renal
  TGI: > 100 µM
EKVX NSCLC
  TGI: > 100 µM
HS 578T breast
  TGI: > 100 µM
MALME-3M melanoma
  TGI: > 100 µM
OVCAR-8 ovarian
  TGI: > 100 µM
HT29 colon
  TGI: > 100 µM
NCI-H460 lung
  TGI: > 100 µM
MDA-N
  TGI: > 100 µM
UACC-62 melanoma
  TGI: > 100 µM
CCRF-CEM leukemia
  TGI: > 100 µM
IGROV1 ovarian
  TGI: > 100 µM
SF-539 CNS
  TGI: > 100 µM
MCF7 breast
  TGI: > 100 µM

Reference: PubChem BioAssay (NCI)
